According to PMC11231114 (EJNMMI Research, 2024):

How the values were obtained:
[1] = test system: Wistar rats; experiment: Extended single dose toxicity study, i.v. 2 mg/kg b.w.
Protocol: Throughout the experiment, the animals’ behaviour was observed and their weight recorded.
The normality distribution was tested with Shapiro-Wilk test. For homogeneity of variance Brown-Forsythe test has been used. For normal distribution and homogeneous variances results, Student’s t-test was used. In the absence of normal distribution, Mann-Whitney test was used. In the case of non-homogenous variance, Cochrane-Cox test was used.

[2] = Plasma pharmacokinetics of non-radioactive SYN2, single i.v. 2 mg/kg, LC-MS/MS; assay type: in vivo, Wistar rats
Protocol: The pharmacokinetic study was also conducted using non-radioactive reference standard of [^18F]SYN2 after a single i.v. administration at a dose of 2 mg/kg in rats. Blood samples of about 0.5 ml were collected in K3-EDTA tubes at pre-dose time and 4 min, 15 min, 30 min, 60 min, 4 h, and 24 h after injection (three rats were used at each time point, each rat was bled twice). Blood samples were then centrifuged at approx. 3270 g at 5 ± 3 °C for 10 min to extract plasma, divided in two aliquots and analysed (54 plasma samples in total). The concentrations of SYN2 were determined according to a LC-MS/MS validated method according to the Guidance for Industry (FDA) and Guidance on Validation of Bioanalytical Methods (EMA).

[3] = Expected human Cmax after body surface area correction; settings: read-out: expected Cmax, proposed maximum limit dose of 100 µg (2 µg/kg for a 50-kg patient)
[4] = test system: dog hepatocytes; experiment: Metabolite profiling in cryopreserved hepatocytes (in vitro MetID); assay type: in vitro ADME; settings: for Relative abundance of metabolites calculated as % of parent (SYN2), Dog: 1 µM SYN2, 37 °C
Protocol: (§1) The metabolite profiling and characterization experiment of SYN2 molecule (in vitro MetID, Admescope) was conducted to evaluate potential metabolic pathways. In order to characterize the metabolites of SYN2, the compound was incubated in cryopreserved rat, dog and human hepatocytes. Prior to the incubation, the hepatocytes were thawed, suspended in Williams medium E and then centrifuged to receive a target density of about 1 million cells/ml. A SYN2 solution of 1 µM was then added to the hepatocyte suspension and incubated at 37 °C for 0, 30 and 60 min. The incubations were stopped by the addition of acetonitrile, then frozen and centrifuged to remove precipitated proteins. Supernatants were then analysed with ultra-performance liquid chromatography (UPLC) and high-resolution mass spectrometry (HRMS).
(§2) Compound Discoverer (CD) was used for data mining with manual confirmation for metabolite profiling and characterization.

[5] = test system: human hepatocytes; experiment: as above; assay type: in vitro ADME; settings: for Relative abundance of metabolites calculated as % of parent (SYN2), Human: 1 µM SYN2, 37 °C
Protocol: as §1, §2

[6] = test system: rat hepatocytes; experiment: as above; assay type: in vitro ADME; settings: for Relative abundance of metabolites calculated as % of parent (SYN2), Rat: 1 µM SYN2, 37 °C
Protocol: as §1, §2

[7] = biological target: T1, muscarinic M2 acetylcholine receptor (Homo sapiens, UniProt P08172); experiment: Radioligand binding assay (LeadProfilingScreen SafetyScreen panel); settings: 1 µM
T1 construct: purchased Eurofins Panlabs, Inc. PP68
T1 sequence (P08172 1-466): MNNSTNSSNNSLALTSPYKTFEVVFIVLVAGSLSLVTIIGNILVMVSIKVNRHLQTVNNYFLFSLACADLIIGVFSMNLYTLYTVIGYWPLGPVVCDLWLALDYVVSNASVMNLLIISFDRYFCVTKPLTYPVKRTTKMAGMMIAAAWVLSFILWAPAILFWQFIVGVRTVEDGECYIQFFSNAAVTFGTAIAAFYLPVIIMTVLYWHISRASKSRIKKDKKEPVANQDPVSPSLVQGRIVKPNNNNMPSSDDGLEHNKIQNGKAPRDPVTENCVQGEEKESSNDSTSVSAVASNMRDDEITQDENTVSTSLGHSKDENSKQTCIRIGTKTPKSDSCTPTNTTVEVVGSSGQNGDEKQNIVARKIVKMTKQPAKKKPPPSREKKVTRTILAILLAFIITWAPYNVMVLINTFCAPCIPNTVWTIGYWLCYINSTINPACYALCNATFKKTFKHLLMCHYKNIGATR
Protocol: (§3) The possibility of pharmacological interactions of SYN2 was assessed in vitro in radioligand binding assays on key pharmacological target classes including GPCRs, drug transporters, ion channels, nuclear receptors and enzymes (LeadProfilingScreen SafetyScreen, PP68, Panel of 68 receptors, Eurofins Panlabs, Inc.). There was only one SYN2 concentration of 1 µM used in the study.
(§4) IC50 values from pharmacodynamics assessment were determined by a non-linear, least squares regression analysis using MathIQ™ (ID Business Solutions Ltd., UK). Where inhibition constants (Ki) are presented, the Ki values were calculated using the equation of Cheng and Prusoff using the observed IC50 of the tested compound, the concentration of radioligand employed in the assay, and the historical values for the KD of the ligand (obtained experimentally at Eurofins Panlabs, Inc.). Where presented, the Hill coefficient (nH), defining the slope of the competitive binding curve, was calculated using MathIQ™.

[8] = biological target: T2, muscarinic acetylcholine M1 receptor (Homo sapiens, UniProt P11229); experiment: as above; settings: 1 µM
T2 construct: purchased Eurofins Panlabs, Inc. PP68
T2 sequence (P11229 1-460): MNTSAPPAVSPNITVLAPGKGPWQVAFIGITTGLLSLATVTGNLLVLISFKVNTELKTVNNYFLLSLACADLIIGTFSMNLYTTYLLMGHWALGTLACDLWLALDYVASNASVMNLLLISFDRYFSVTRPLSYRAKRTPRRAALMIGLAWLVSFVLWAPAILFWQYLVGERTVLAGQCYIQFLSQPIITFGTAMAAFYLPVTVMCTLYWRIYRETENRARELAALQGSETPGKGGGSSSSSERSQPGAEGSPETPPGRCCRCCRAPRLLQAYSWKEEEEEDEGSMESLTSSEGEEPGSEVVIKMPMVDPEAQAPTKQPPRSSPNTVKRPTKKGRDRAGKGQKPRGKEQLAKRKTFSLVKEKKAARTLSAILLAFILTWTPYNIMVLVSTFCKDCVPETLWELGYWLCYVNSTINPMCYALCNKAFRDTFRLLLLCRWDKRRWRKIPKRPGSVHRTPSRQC
Protocol: as §3, §4

[9] = biological target: T3, potassium channel hERG (Homo sapiens, UniProt Q12809); experiment: as above; settings: 1 µM
T3 construct: purchased Eurofins Panlabs, Inc. PP68
T3 sequence (Q12809 whole entry): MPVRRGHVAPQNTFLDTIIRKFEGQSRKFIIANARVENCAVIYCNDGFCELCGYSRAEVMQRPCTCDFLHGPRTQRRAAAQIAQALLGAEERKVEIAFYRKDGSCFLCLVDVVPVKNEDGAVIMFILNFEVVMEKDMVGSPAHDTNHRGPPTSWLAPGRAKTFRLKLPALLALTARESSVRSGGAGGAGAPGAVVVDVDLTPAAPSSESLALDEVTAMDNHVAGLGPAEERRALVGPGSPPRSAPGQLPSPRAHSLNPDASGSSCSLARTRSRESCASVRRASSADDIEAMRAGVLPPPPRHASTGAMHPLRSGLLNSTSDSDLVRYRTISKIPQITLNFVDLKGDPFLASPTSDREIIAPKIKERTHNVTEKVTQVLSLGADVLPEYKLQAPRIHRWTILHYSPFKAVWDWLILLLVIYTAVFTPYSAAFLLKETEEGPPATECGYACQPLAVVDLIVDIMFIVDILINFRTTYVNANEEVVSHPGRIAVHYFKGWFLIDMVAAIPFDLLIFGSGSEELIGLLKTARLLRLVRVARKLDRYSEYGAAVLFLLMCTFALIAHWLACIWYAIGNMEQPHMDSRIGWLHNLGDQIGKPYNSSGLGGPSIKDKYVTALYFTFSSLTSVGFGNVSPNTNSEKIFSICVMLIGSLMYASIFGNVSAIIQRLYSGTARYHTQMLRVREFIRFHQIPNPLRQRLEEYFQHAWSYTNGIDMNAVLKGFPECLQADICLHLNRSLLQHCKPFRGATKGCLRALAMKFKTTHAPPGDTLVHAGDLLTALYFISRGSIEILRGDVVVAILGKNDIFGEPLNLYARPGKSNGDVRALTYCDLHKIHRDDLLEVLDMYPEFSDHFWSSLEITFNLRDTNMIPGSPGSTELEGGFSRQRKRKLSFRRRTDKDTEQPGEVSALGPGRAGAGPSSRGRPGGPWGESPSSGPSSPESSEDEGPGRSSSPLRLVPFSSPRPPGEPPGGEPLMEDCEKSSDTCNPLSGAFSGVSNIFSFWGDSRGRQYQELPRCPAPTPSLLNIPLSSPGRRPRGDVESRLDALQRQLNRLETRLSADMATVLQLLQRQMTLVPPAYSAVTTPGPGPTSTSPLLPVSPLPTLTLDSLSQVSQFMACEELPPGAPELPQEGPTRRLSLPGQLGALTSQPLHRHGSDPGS
Protocol: as §3, §4

[10] = test system: GPCRs, drug transporters, ion channels, nuclear receptors and enzymes; experiment: Radioligand binding assays, remaining 65 assays of the panel of 68; settings: 1 µM
Protocol: as §3, §4

[11] = biological target: T4, muscarinic M2 (Homo sapiens, UniProt P08172); experiment: Functional assay at several concentrations; assay type: biochemical; settings: antagonistic effect
T4 sequence (P08172 1-466): T1 sequence (P08172 1-466)
Protocol: (§5) IC50 values from pharmacodynamics assessment were determined by a non-linear, least squares regression analysis using MathIQ™ (ID Business Solutions Ltd., UK). […] Where presented, the Hill coefficient (nH), defining the slope of the competitive binding curve, was calculated using MathIQ™.

[12] = biological target: hERG (Homo sapiens, UniProt Q12809); experiment: Functional assay at several concentrations; assay type: biochemical; settings: antagonistic effect
Chain of hERG (Q12809 whole entry): as above
Protocol: as §5

[13] = clinical examinations, 2 mg/kg b.w. i.v., treated vs control
[14] = clinical-chemical examinations, 2 mg/kg b.w. i.v., treated vs control
[15] = post mortem examination, 2 mg/kg b.w. i.v., treated vs control

With `CN(C)c1ccc2cc3ccc(N(C)C)cc3[n+](CCF)c2c1` [SYN2] the Body weight [1, 13] was “-”, the Clinical observations [1, 13] was “-” and the Mortality [1, 13] was “-”. The Biochemical investigations [1, 14] was “+”, the Enzymatic investigations [1, 14] was “+” and the Haematological investigations [1, 14] was “-”. The Gross examination [1, 15] was “+”, the Histopathological examinations [1, 15] was “+” and the “Weight of internal organs” value [1, 15] was “+”. For the same molecule, the “Tolerability in the toxicological study” value ([1]; single i.v. 2 mg/kg b.w., Wistar rats) was “well-tolerated”, the “No Observed Adverse Effect Level (NOAEL)” value ([1]; single i.v. dose, Wistar rats) was 2 mg/kg and the AUCt ([2]; rat plasma) was 73.75 ng·h/mL. For the same molecule, the Clast ([2]; rat plasma) was 8.95 ng/mL, the Cmax ([2]; rat plasma) was 368.67 ng/mL and the Tmax ([2]; rat plasma) was 4.2 min. For the same molecule, the Vz ([2]; rat plasma) was 0.99 L/kg, the Cl ([2]; rat plasma clearance) was 43.2 mL/min/kg and the T½λz ([2]; terminal half-life, rat plasma) was 15.6 min. The Cmax [3] was 1.1 nM, the “Relative abundance of metabolites calculated as % of parent (SYN2), Dog” value ([4]; 30 min) was 100 % of parent and the “Relative abundance of metabolites calculated as % of parent (SYN2), Dog” value ([4]; 60 min) was 100 % of parent. For the same molecule, the unchanged parent remaining ([4]; after 60 min, dog hepatocytes) was 5%, the “Relative abundance of metabolites calculated as % of parent (SYN2), Human” value ([5]; 30 min) was 100 % of parent and the “Relative abundance of metabolites calculated as % of parent (SYN2), Human” value ([5]; 60 min) was 100 % of parent. For the same molecule, the “unchanged SYN2 remaining” value ([5]; after 60 min, human hepatocytes) was 70%, the “Relative abundance of metabolites calculated as % of parent (SYN2), Rat” value ([6]; 30 min) was 100 % of parent and the “Relative abundance of metabolites calculated as % of parent (SYN2), Rat” value ([6]; 60 min) was 100 % of parent. The unchanged parent remaining ([6]; after 60 min, rat hepatocytes) was 32%, the inhibition [7] was 68% and the inhibition [8] was 58%. The inhibition [9] was 57%, the “mean response, remaining 65 assays” value [10] was 7.63% and the “median response, remaining 65 assays” value [10] was 4%. It also gave an IC50 [11] of roughly 1000 nM and an IC50 [12] of roughly 1000 nM.
